Source: publication PMC5655388, “Nicotinamide-based diamides derivatives as potential cytotoxic agents: synthesis and biological evaluation” (Chemistry Central Journal, 2017)
Values after ≈ are worked out from the molar mass of the structure shown.

What was measured:
[1] = MTT in vitro cytotoxicity assay, HL-7702 normal cells; format: cell-based; conditions: human, HL-7702 normal liver cells, mean ± SD
Method: (§1) All newly prepared nicotinamide-based diamides derivatives 4a–k and several similar diamides 4l–o were evaluated for their in vitro cytotoxic effects against NCI-H460 (Human large cell lung cancer cell line), A549 (Human lung cancer cell line), NCI-H1975 (Human lung cancer cell line), HL-7702 (Human normal liver cells), and MDCK (Madin-Darby canine kidney cells) cell lines by the modified MTT (3-(4,5-dimethylthiazol-2-yl)-2,5-diphenyl tetrazolium bromide) assay using 5-FU (5-Fluorouracil) as a positive control.
(§2) The in vitro cytotoxicity of the synthesized compounds against different human lung cancer cell lines (NCI-H460, A549, NCI-H1975) and normal cells (HL-7702 and MDCK) were measured with the 3-(4,5-dimethylthiazol-2-yl)-2,5-diphenyl tetrazolium bromide (MTT) assay. All the data of the experiment were analyzed with SPSS software, and the 50% inhibitory concentrations (IC50) of each compound for the different cell lines were determined. A control was run for each test, and all assays were performed in triplicate on three independent experiments, and measurement data were expressed as the mean ± SD.

[2] = tested on: A549 (Human lung cancer cell line); test: MTT in vitro cytotoxicity assay, A549; format: cell-based; conditions: for IC50: Homo sapiens, A549 cells, MTT assay, mean ± SD; for Cytotoxic (inhibitory) activity at single concentration, A549: 40 µg/mL, preliminary screen (Fig. 4), result in words
Method: as §1, §2

[3] = MTT in vitro cytotoxicity assay, MDCK normal cells; format: cell-based, canine; conditions: dog, MDCK normal kidney cells, mean ± SD
Method: as §1, §2

[4] = tested on: NCI-H1975 (Human lung cancer cell line); test: MTT in vitro cytotoxicity assay, NCI-H1975; format: cell-based; conditions: for IC50: Homo sapiens, NCI-H1975 cells, MTT assay, mean ± SD; for Cytotoxic (inhibitory) activity at single concentration, NCI-H1975: 40 µg/mL, preliminary screen (Fig. 4), result in words
Method: as §1, §2

[5] = tested on: NCI-H460 (Human large cell lung cancer cell line); test: MTT in vitro cytotoxicity assay, NCI-H460; format: cell-based; conditions: for IC50: Homo sapiens, NCI-H460 cells, MTT assay, mean ± SD; for Cytotoxic (inhibitory) activity at single concentration, NCI-H460: 40 µg/mL, preliminary screen (Fig. 4), result in words
Method: as §1, §2

| Compound | IC50 [1] [µg/mL] | IC50 [2] [µg/mL] | IC50 [3] [µg/mL] | IC50 [4] [µg/mL] | IC50 [5] [µg/mL] | Cytotoxic (inhibitory) activity at single concentration, A549 [2] | Cytotoxic (inhibitory) activity at single concentration, NCI-H1975 [4] | Cytotoxic (inhibitory) activity at single concentration, NCI-H460 [5] |
| --- | --- | --- | --- | --- | --- | --- | --- | --- |
| NC(=O)c1cccnc1NC(=O)c1ccccc1Nc1cccc(C(F)(F)F)c1 [4a, 2-(2-((3-(Trifluoromethyl)phenyl)amino)benzamido)nicotinamide] | > 40 | > 40 | > 40 | > 40 | > 40 |  |  |  |
| CNC(=O)c1cccnc1NC(=O)c1ccccc1Nc1cccc(C(F)(F)F)c1 [4b, N-Methyl-2-(2-((3-(trifluoromethyl)phenyl)amino)benzamido)nicotinamide] | > 40 | > 40 | > 40 | > 40 | 36.7 ± 2.8 (≈ 88.5 µM) |  |  |  |
| CC(O)CNC(=O)c1cccnc1NC(=O)c1ccccc1Nc1cccc(C(F)(F)F)c1 (centres unmarked) [4c, N-(2-Hydroxypropyl)-2-(2-((3-(trifluoromethyl)phenyl)amino)benzamido)nicotinamide] | 19.7 ± 0.45 (≈ 43 µM) | 26.3 ± 3.22 (≈ 57.4 µM) | 17 ± 0.84 (≈ 37 µM) | 27.2 ± 2.76 (≈ 59.4 µM) | 20.6 ± 1.37 (≈ 45 µM) | significant inhibitory activities | significant inhibitory activities | significant inhibitory activities |
| CC(=O)CNC(=O)c1cccnc1NC(=O)c1ccccc1Nc1cccc(C(F)(F)F)c1 [4d, N-(2-Oxopropyl)-2-(2-((3-(trifluoromethyl)phenyl)amino)benzamido)nicotinamide] | 26.9 ± 0.95 (≈ 58.9 µM) | 13.1 ± 2.45 (≈ 28.7 µM) | 13.4 ± 0.29 (≈ 29.5 µM) | 12.8 ± 1.59 (≈ 28.1 µM) | 4.07 ± 1.3 (≈ 8.92 µM) | significant inhibitory activities | significant inhibitory activities | significant inhibitory activities |
| Cc1cc(Cl)cc(C(N)=O)c1NC(=O)c1cccnc1Nc1cccc(C(F)(F)F)c1 [4e, N-(2-Carbamoyl-4-chloro-6-methylphenyl)-2-((3-(trifluoromethyl)phenyl)amino)nicotinamide] | > 40 | > 40 | > 40 | > 40 | > 40 | selective cytotoxicity |  |  |
| CNC(=O)c1cc(Cl)cc(C)c1NC(=O)c1cccnc1Nc1cccc(C(F)(F)F)c1 [4f, N-(4-Chloro-2-methyl-6-(methylcarbamoyl)phenyl)-2-((3-(trifluoromethyl)phenyl)amino)nicotinamide] | > 40 | > 40 | > 40 | > 40 | > 40 |  |  |  |
| NC(=O)c1cccnc1NC(=O)c1cccnc1Nc1cccc(C(F)(F)F)c1 [4g, N-(3-Carbamoylpyridin-2-yl)-2-((3-(trifluoromethyl)phenyl)amino)nicotinamide] | 9.86 ± 0.34 (≈ 24.6 µM) | 20.1 ± 0.48 (≈ 50.1 µM) | 13 ± 1.27 (≈ 32.5 µM) | 10.8 ± 2.22 (≈ 27 µM) | 9.17 ± 2.02 (≈ 22.8 µM) | significant inhibitory activities | significant inhibitory activities | significant inhibitory activities |
| CNC(=O)c1cccnc1NC(=O)c1cccnc1Nc1cccc(C(F)(F)F)c1 [4h, N-Methyl-2-(2-((3-(trifluoromethyl)phenyl)amino)nicotinamido)nicotinamide] | 11.6 ± 2.08 (≈ 28 µM) | 17.2 ± 3.4 (≈ 41.4 µM) | 11.1 ± 0.24 (≈ 26.6 µM) | 12.4 ± 2.52 (≈ 29.9 µM) | 9.31 ± 2.66 (≈ 22.4 µM) | significant inhibitory activities | significant inhibitory activities | significant inhibitory activities |
| CC(O)CNC(=O)c1cccnc1NC(=O)c1cccnc1Nc1cccc(C(F)(F)F)c1 (centres unmarked) [4i, N-(2-Hydroxypropyl)-2-(2-((3-(trifluoromethyl)phenyl)amino)nicotinamido)nicotinamide] | 14.5 ± 2.19 (≈ 31.6 µM) | 16.5 ± 3.53 (≈ 36 µM) | 11.62 ± 0.06 (≈ 25.3 µM) | 9.15 ± 1.64 (≈ 19.9 µM) | 13.1 ± 4.49 (≈ 28.5 µM) | significant inhibitory activities | significant inhibitory activities | significant inhibitory activities |
| NC(=O)c1cc2ccccc2cc1NC(=O)c1cccnc1Nc1cccc(C(F)(F)F)c1 [4j, N-(3-Carbamoylnaphthalen-2-yl)-2-((3-(trifluoromethyl)phenyl)amino)nicotinamide] | 18.1 ± 1.63 (≈ 40.2 µM) | 24.8 ± 3 (≈ 55 µM) | 14.3 ± 0.66 (≈ 31.7 µM) | 25.2 ± 3.35 (≈ 55.9 µM) | 38.4 ± 3.95 (≈ 85.3 µM) |  |  |  |
| CNC(=O)c1cc2ccccc2cc1NC(=O)c1cccnc1Nc1cccc(C(F)(F)F)c1 [4k, N-(3-(Methylcarbamoyl)naphthalen-2-yl)-2-((3-(trifluoromethyl)phenyl)amino)nicotinamide] | > 40 | 35.3 ± 2.19 (≈ 76 µM) | > 40 | > 40 | > 40 | selective cytotoxicity |  |  |
| Cc1cc(Cl)cc(C(N)=O)c1NC(=O)c1ccccc1Nc1cccc(C(F)(F)F)c1 [4l, 5-Chloro-3-methyl-2-(2-((3-(trifluoromethyl)phenyl)amino)benzamido)benzamide] | > 40 | > 40 | > 40 | > 40 | > 40 | selective cytotoxicity |  |  |
| CNC(=O)c1cc(Cl)cc(C)c1NC(=O)c1ccccc1Nc1cccc(C(F)(F)F)c1 [4m, 5-Chloro-N,3-dimethyl-2-(2-((3-(trifluoromethyl)phenyl)amino)benzamido)benzamide] | 21.4 ± 1.79 (≈ 46.4 µM) | 6.77 ± 0.86 (≈ 14.7 µM) | 21.2 ± 3.59 (≈ 46 µM) | 10.8 ± 1.02 (≈ 23.4 µM) | 6.85 ± 0.23 (≈ 14.8 µM) | good inhibition activities | good inhibition activities | good inhibition activities |
| NC(=O)c1cc2ccccc2cc1NC(=O)c1ccccc1Nc1cccc(C(F)(F)F)c1 [4n, 3-(2-((3-(Trifluoromethyl)phenyl)amino)benzamido)-2-naphthamide] | > 40 | > 40 | 14.44 ± 0.01 (≈ 32.1 µM) | > 40 | > 40 |  |  |  |
| CNC(=O)c1cc2ccccc2cc1NC(=O)c1ccccc1Nc1cccc(C(F)(F)F)c1 [4o, N-Methyl-3-(2-((3-(trifluoromethyl)phenyl)amino)benzamido)-2-naphthamide] | > 40 | > 40 | > 40 | > 40 | > 40 |  |  |  |
| O=c1[nH]cc(F)c(=O)[nH]1 [5-FU, 5-Fluorouracil, reference compound] | 11.3 ± 1.67 (≈ 87.3 µM) | 37.5 ± 3.25 (≈ 288 µM) | 8.65 ± 0.81 (≈ 66.5 µM) | 24.8 ± 5.8 (≈ 190 µM) | 8.02 ± 2.35 (≈ 61.7 µM) |  |  |  |
